Assay results reported in patent publication US20240335543A1, “IONIZABLE AMINE AND ESTER LIPIDS AND LIPID NANOPARTICLES” (Beam Therapeutics Inc., priority 2021, published 2024).

Assays:
[1] = LNP hydrodynamic diameter and polydispersity index by dynamic light scattering (DLS); type: physicochemical; details: LNP with 47.5% Ionizable Lipid: 40% cholesterol: 2.5% PEG-2000 DMG: 10% DPSC, N/P 4-8
Description: (§1) LNPs were prepared with 47.5% Ionizable Lipid (e.g., a compound provided herein): 40% cholesterol: 2.5% PEG-2000 DMG: 10% DPSC and an N/P ratio range of 4-8. LNPs were formed by microfluidic mixing of the lipid and NA solutions using a Precision Nanosystems NanoAssemblr Spark or Benchtop series Instruments, according to the manufacturer's protocol. A ratio of aqueous to organic solvent of approximately 2:1 or 3:1 was maintained during mixing using differential flow rates. After mixing, LNPs were collected, diluted in phosphate buffer saline (PBS) or Tris-buffered saline (TBS) (approximately 1:1 v/v). Further buffer exchange was conducted using dialysis in PBS or TBS at 4° C. for 4 to 24 hours against a 20 kDa filter. After this initial dialysis, each individual LNP preparation was characterized via dynamic light scattering (DLS) to measure the size (e.g., diameter) and polydispersity. LNPs falling within specific diameter and polydispersity ranges were pooled, and further dialyzed against PBS or TBS at 4° C. for 1 to 4 hours against a 100 kDa dialysis cassette. After the second dialysis, LNPs were sterile filtered using 0.22 μm filter and stored at 4° C. for further use.
LNP hydrodynamic diameter and polydispersity index (PDI) were measured using high throughput dynamic light scattering (DLS) (Stunner, Unchained Labs). LNPs were diluted 1×TBS or PBS to an appropriate concentration and analyzed.

[2] = RNA encapsulation efficiency of LNPs by Ribogreen assay; type: physicochemical; details: LNP with 47.5% Ionizable Lipid: 40% cholesterol: 2.5% PEG-2000 DMG: 10% DPSC, N/P 4-8
Description: as §1
RNA concentration and encapsulation efficiency were determined by Ribogreen assay (BioTek Synergy LX plate reader).

[3] = tested on: ALAS1 target site; assay: In vivo base editing in liver with LNPs carrying adenine base editor mRNA and sgRNA, targeted deep sequencing; details: Balb/C mice, tail vein, 0.15 mg/kg total RNA, ABE mRNA + ALAS1 sgRNA 1:1, tissues four to six days post-dose
Description: Exemplary LNP preparations were selected to determine each preparation's ability to perform base editing in a Balb/C mouse model as described herein.
Lipid nanoparticle components were dissolved in 100% ethanol at specified lipid component molar ratios. mRNA encoding an adenine base editor and a chemically-modified sgRNA was dissolved at a mass ratio of 1:1 in 50 mM citrate, pH 4.0, resulting in a concentration of NA cargo of approximately 0.1 mg/mL.
LNP preparations were formulated with molar ratios of 47.5% Ionizable Lipid: 40% Cholesterol: 2.5% PEG2000-DMG: 10% DSPC total lipid to NA mass ratio of 6 to 12.
LNP preparations were formed by microfluidic mixing of the lipid and NA solutions using a Precision Nanosystems NanoAssemblr Ignite series Instruments, according to the manufacturer's protocol.
A 3:1 ratio of aqueous to organic solvent was maintained during mixing using differential flow rates. After mixing, LNP preparations were collected, diluted in TBS (approximately 7:1 v/v), and further buffer exchange was conducted using dialysis in TBS at 4° C. for 8 to 24 hours against a 20 kDa filter. After this initial dialysis, each individual LNP preparation was characterized via dynamic light scattering (DLS) to measure size and polydispersity. pKa of a subpopulation of LNP preparations was measured via TNS assay.
After dialysis, LNP preparations were sterile filtered using 0.22 micron sterile filter and stored at 4° C. for further use. In some embodiments, LNP preparations were concentrated using 100 kDa Amicon filters per manufacturer's protocol.
Male Balb/C mice aged approximately 8-12 weeks were used in the experiments described herein. […]
Age-matched mice were also used to administer vehicle (1×TBS) via tail vein injection as a control. […] Base editing was determined by performing targeted deep sequencing analysis at the ALAS1 target site using extracted genomic DNA. […] Library size and concentration was confirmed by Fragment Analyzer (Agilent) and analyzed for whole genome sequencing using an Illumina HiSeq.

[4] = tested on: Lung; assay: Barcoded LNP biodistribution screen, fold above input (FAI) in lung; type: in vivo; details: pooled LNP IV tail vein, mice, 4 hours post-dose
Description: (§2) Male and female mice aged approximately 8-12 weeks were used for studies described by the present Example. Each mouse was temporarily restrained and pooled LNP was administered IV via tail vein injection in up to five animals per experiment. Age-matched mice was also used to administer vehicle (1×TBS) via tail vein injection in up to three animals per experiment. Additional routes of administration can also be conducted including intracerebral ventricular (ICV), intracisterna manga (ICM), intrathecal (IT), intramuscular (IM), nebulization, intranasal (IN), subcutaneous (SC), intraarticular, and intradermal (ID). At 4 hours post-dose, tissues including liver, spleen, bone marrow, testes, gastrocnemius, quadricep, lung, heart, kidney, and pancreas may be collected for analysis. […]
(§3) To screen for preferential LNP delivery to a target tissues, the relative abundance of each barcode in one or more target tissues was measured and compared to the relative abundance of each barcode to its corresponding relative input abundance to determine fold above input (FAI) for each barcode. […]
(§4) The FAI is the normalized relative abundance of a barcode in a selected sample as compared to its frequency in the input. […] The FAI value of the barcode was calculated by normalizing the relative abundance in the barcode sequence counts in the isolated samples to its relative abundance in the administration input. […]

[5] = tested on: Spleen; assay: Barcoded LNP biodistribution screen, fold above input (FAI) in spleen; type: in vivo; details: pooled LNP IV tail vein, mice, 4 hours post-dose
Description: as §2, with “(ID).” for “(ID). At 4 hours post-dose, tissues including liver, spleen, bone marrow, testes, gastrocnemius, quadricep, lung, heart, kidney, and pancreas may be collected for analysis.”
Liver, kidney, lung, and muscle (e.g. skeletal and cardiac) tissues may be mechanically, and then enzymatically digested using a mixture of proteinases, then passed through a 70 μm filter to generate single cell suspensions. […] Tissues were treated with ACK buffer to lyse red blood cells, and then stained with fluorescently-labeled antibodies for flow cytometry and fluorescence-activated cell sorting (FACS). […]
as §3

[6] = tested on: Liver; assay: Barcoded LNP biodistribution screen, fold above input (FAI) in liver; type: in vivo; details: pooled LNP IV tail vein, mice, 4 hours post-dose
Description: as §2, §3, §4

Row | SMILES | Mean Diameter (nm) [1] [nm] | Mean PDI [1] | Mean Encapsulation Efficiency (%) [2] [%] | base editing observed in liver [3] [%] | FAI (Lung) ([4]; Table 3 screening experiment) | FAI (Lung) ([4]; Table 4 screening experiment) | FAI (Spleen) ([5]; Table 3 screening experiment) | FAI (Spleen) ([5]; Table 4 screening experiment) | FAI (Liver) ([6]; Table 3 screening experiment) | FAI (Liver) ([6]; Table 4 screening experiment)
1 | CCCCCCC(CC)OC(=O)CCCCCCCCN(CCCCCCCCC(=O)OC(CC)CCCCCC)CCCNC(=O)c1cc(C(=O)NCCCN(CCCCCCCCC(=O)OC(CC)CCCCCC)CCCCCCCCC(=O)OC(CC)CCCCCC)cc(C(=O)OCCN(C)C)c1 (stereo not drawn) [Compound 7-5, tetra(nonan-3-yl) 9,9′,9″,9′-((((5-((2-(dimethylamino)ethoxy)carbonyl)isophthaloyl)bis(azanediyl))bis(propane-3,1-diyl))bis(azanetriyl))tetranonanoate] | 124.6 | 0.10 | 94.7 | 5.2 |  |  |  |  |  | 
2 | CCCCCCC(CC)OC(=O)CCCCCCCCN(CCCCCCCCC(=O)OC(CC)CCCCCC)CCCNC(=O)c1cccc(C(=O)NCCCN(CCCCCCCCC(=O)OC(CC)CCCCCC)CCCCCCCCC(=O)OC(CC)CCCCCC)c1 (stereo not drawn) [Compound 7-1, tetra(nonan-3-yl) 9,9′,9″,9′″-(((isophthaloylbis(azanediyl))bis(propane-3,1-diyl))bis(azanetriyl))tetranonanoate] | 82.4 | 0.16 | 76.7 | 28.2 |  |  |  |  |  | 
3 | CCCCCCC(CC)OC(=O)CCCCCCCCN(CCCCCCCCC(=O)OC(CC)CCCCCC)CCCNC(=O)c1ccc(C(=O)NCCCN(CCCCCCCCC(=O)OC(CC)CCCCCC)CCCCCCCCC(=O)OC(CC)CCCCCC)cc1 (stereo not drawn) [Compound 7-2, tetra(nonan-3-yl) 9,9′,9″,9′″-(((terephthaloylbis(azanediyl))bis(propane-3,1-diyl))bis(azanetriyl))tetranonanoate] | 110.0 | 0.08 | 58.4 | 3.1 |  |  |  |  |  | 
4 | CCCCC/C=C\C/C=C\CCCCCCCCC(CCCCCCCC/C=C\C/C=C\CCCCC)OC(=O)CCCN(C)C [MC3, (6Z,9Z,28Z,31Z)-heptatriaconta-6,9,28,31-tetraen-19-yl 4-(dimethylamino) butanoate] |  |  |  |  | 0.65 | 1.26 | 0.45 | 1.71 | 0.31 | 1.30

Now from value to molecule, other results behind:

Row | Mean Diameter (nm) [1] [nm] | Mean PDI [1] | Mean Encapsulation Efficiency (%) [2] [%] | SMILES | base editing observed in liver [3] [%] | FAI (Lung) ([4]; Table 3 screening experiment) | FAI (Lung) ([4]; Table 4 screening experiment) | FAI (Spleen) ([5]; Table 3 screening experiment) | FAI (Spleen) ([5]; Table 4 screening experiment) | FAI (Liver) ([6]; Table 3 screening experiment) | FAI (Liver) ([6]; Table 4 screening experiment)
5 | 90.8 | 0.11 | 84.9 | CCCCCC(CCCCC)CCOC(=O)CCCCCCCOC(=O)c1cc(C(=O)OCCCCCCCC(=O)OCCC(CCCCC)CCCCC)cc(C(=O)OCCCCN(C)C)c1 [Compound 7-9, 1-(4-(dimethylamino)butyl) 3,5-bis(8-oxo-8-((3-pentyloctyl)oxy)octyl) benzene-1,3,5-tricarboxylate] |  |  |  |  |  |  | 
6 | 86.5 | 0.09 | 75.3 | CCCCCC(CCCCC)CCOC(=O)CCCCCCCOC(=O)c1cc(C(=O)OCCCCCCCC(=O)OCCC(CCCCC)CCCCC)cc(C(=O)OCCCN(C)C)c1 [Compound 7-7, 1-(3-(dimethylamino)propyl) 3,5-bis(8-oxo-8-((3-pentyloctyl)oxy)octyl) benzene-1,3,5-tricarboxylate] |  |  |  |  |  |  | 
